Paper PMC8154177 (Circulation, 2021)
Read-outs that look alike come from different tables or passages of the source.

How the values were obtained:
human Nav1.5 (WT) [1] = biological target: T1, human Nav1.5 (WT) (Homo sapiens, UniProt Q14524); assay: cell-based
human Nav1.5 (WT) [2] = biological target: T1, human Nav1.5 (WT); details: for Effect on peak-INa: over a range of concentrations
mouse cardiomyocytes = assay: Calcium transients (Fluo-4) in paced single mouse cardiac myocytes, veratridine-induced spontaneous events; assay type: cell-based
Procedure: Cardiomyocytes were isolated from 3- to 6-month-old male C57Bl6N mice as described above and then loaded with 1 µmol/L Fluo-4 AM for 30 to 60 minutes at room temperature before imaging with an Olympus IX83 inverted microscope. The cells were perfused with a gravity controlled, multi-channel superfusion system at a flow rate of 1.5 mL/min. Fluorescence was recorded at 20 Hz through a UPLSAPO 20X objective and an Andor iXon Ultra 897 camera after excitation at 480 nm for 9.85 ms at 5% intensity of the X-cite 120 LED Boost Excelitas light source. Cardiomyocytes were field-stimulated at 1 Hz at a current value 10% above the threshold current required to elicit contraction using a current stimulator (Warner Instruments, SIU-102) equipped with platinum electrodes submerged in the recording bath. Cardiomyocytes were selected on the basis of their typical rod-shaped morphology, the absence of unpaced calcium events, and their consistent response to field stimulation. […] Regions of interest were selected such that the cardiomyocyte resided within the boundaries of the regions of interest in both its contracted and its relaxed state. The average fluorescence intensity for the regions of interest in every frame was then analyzed. Fifty-second segments of the fluorescence intensity trace in control and treated conditions from the same cardiomyocyte were obtained. Typically, these segments were the last 50 s during the >120 s superfusion of the chosen treatment condition.

human Nav1.5 ΔKPQ = biological target: T2, human Nav1.5 ΔKPQ (Homo sapiens, UniProt Q14524, DEL1505-1507); assay: Whole-cell patch-clamp of recombinant Nav1.5 LQT3 ΔKPQ mutant; assay type: cell-based; details: 10 µmol/L
T2 construct: host or cells: HEK293T
Procedure: (§1) The human Nav1.5 gene (SCN5A) in the pcDNA3.1(+)/C-(K)DYK vector (GenScript, Cat No. OHu18270D, USA) was cotransfected with a GFP vector into HEK293T cells using Lipofectamine 3000 (Invitrogen, Cat No. L3000001, USA). Transfected cells were seated on coverslips and used for functional studies within 48 to 72 hours. […] PCR products were cloned into XL-10 Gold Ultracompetent cells (Agilent, Cat No. 200315, USA), and DNA was isolated and purified by GeneElute Plasmid Miniprep kits (Sigma, Cat No. PLN350, USA). The presence of the desired mutations and the integrity of plasmids were then verified by DNA sequencing (The Applied Genomics Core, University of Alberta). The R1623Q LQT3 mutation in human Nav1.5 was constructed as described previously.[42]
(§2) Pipettes were pulled from borosilicate glass (World Precision Instruments, Sarasota, FL) using a P-87 micropipette puller (Sutter Instruments, Novato, CA), and the tips were fire-polished, yielding resistances of 3 to 4 MΩ. The pipette solution contained (in mmol/L) 130 CsCl, 5 NaCl, 5 TEA (tetra-ethyl ammonium chloride)-Cl, 2.5 HEPES, 1 EGTA, and 2 MgATP. The pH was adjusted to 7.2 with CsOH. The extracellular solution contained (in mmol/L) 140 NaCl, 10 HEPES, 1 CaCl2, 1.4 MgCl2, 5 KCl, and 5 glucose (pH adjusted to 7.4 with NaOH).

isolated mouse hearts = assay: Postischemic functional recovery (LVDP) of isolated Langendorff-perfused mouse hearts
[3] = system: cardiac sodium current (peak, total, late-INa) in sham cardiomyocytes; assay: Whole-cell patch-clamp of sodium currents in cardiomyocytes from sham-operated mice; assay type: cell-based, mouse; details: 10 µmol/L
Procedure: (§3) Male C57BL/6 N mice (7 weeks of age) were obtained from Charles River Canada (St. Foy, Quebec) and housed in a temperature and humidity-controlled animal facility with a 12:12-hour light-dark cycle for a minimum of 1 week before investigation. Animals were maintained on Rodent Chow #5001 and water ad libitum. Eight-week-old mice weighing 20 to 25 g were anesthetized with a cocktail of ketamine (100 mg/kg) and xylazine (20 mg/kg) intraperitoneal and preoperative analgesia (meloxicam, 1–2 mg/kg subcutaneous). Once animals reached a surgical plane, endotracheal intubation was performed using 22-G tubing. The endotracheal tube was then connected to a ventilator (Hugo-Sachs Electronik Mini-Vent, Harvard Apparatus Canada) and ventilated at 200 to 250 µl stroke volume and 150 breaths/min. Animals were then prepared for surgery (Liquid Tears applied to eyes; chest and throat shaved and washed and topical antiseptic utilized, then draped). A vertical skin incision was made from the suprasternal notch to midsternum, and then straight blunt scissors were used to cut the sternum to the third or fourth rib. Mini-Goldstein (FST) spreaders were used to retract the ribs. The thymus was blunt-dissected and the aortic arch visualized. The transverse arch was carefully dissected free of connective tissue, and a 6/0 silk tie was passed around the arch between the innominate and left carotid arteries. A double-blunted 27-G (0.4-mm) needle was then placed alongside the arch and the tie ligated. The blunted needle was then removed to standardize the stenosis. The thymus was gently replaced, and retractors removed. Two sutures were placed in the sternum, and the skin incision was closed using 6/0 Vicryl suture continuous pattern. Sham-operated animals underwent the same procedure without banding. Animals were removed from the ventilator and left to recover in a prewarmed cage with no bedding until the “righting reflex” was achieved, and checked initially every 5 to 10 minutes for the first 60 minutes, then regularly at 20 to 30 minutes intervals for the next 2 to 3 hours. […]

NLRP3 inflammasome = assay: Immunoblot of NLRP3 and TXNIP in isolated mouse hearts after ischemia-reperfusion (Langendorff)
human Nav1.5 R1623Q = biological target: T3, human Nav1.5 R1623Q (Homo sapiens, UniProt Q14524, R1623Q); assay: Whole-cell patch-clamp of recombinant Nav1.5 LQT3 R1623Q mutant; assay type: cell-based; details: 10 µmol/L
T3 construct: expressed in transfected cells; host or cells: HEK293T
Procedure: as §1, §2

human NCX1.1 = biological target: T4, human NCX1.1 (Homo sapiens, UniProt P32418); assay: Whole-cell patch-clamp of reverse-mode NCX1.1 current in HEK293T cells; assay type: cell-based; details: 1 µmol/L
T4 construct: expressed in transfected cells; host or cells: HEK293T
Excerpt: as §2

[4] = system: cardiac sodium current (peak, total, late-INa) in TAC cardiomyocytes; assay: Whole-cell patch-clamp of sodium currents in cardiomyocytes from TAC (heart failure) mice; assay type: cell-based, mouse; details: 10 µmol/L
Procedure: as §3

[5] = 1 µmol/L, 30 min ischemia, 40 min reperfusion

Compound: CCOc1ccc(Cc2cc([C@@H]3O[C@H](CO)[C@@H](O)[C@H](O)[C@H]3O)ccc2Cl)cc1 [dapagliflozin]
- IC50 (human Nav1.5 (WT) [1]): 0.58 µM
- Effect on peak-INa (human Nav1.5 (WT) [2]): little inhibitory effect

Compound: OC[C@H]1O[C@@H](c2ccc(Cl)c(Cc3ccc(O[C@H]4CCOC4)cc3)c2)[C@H](O)[C@@H](O)[C@@H]1O [empagliflozin]
- IC50 (human Nav1.5 (WT) [1]): 0.79 µM
- Reduction of the occurrence of veratridine-induced spontaneous transients (mouse cardiomyocytes; 1 µmol/L, 20 nmol/L veratridine, 1 Hz field stimulation): 46%
- Effect on calcium transients in vehicle control-treated cardiomyocytes (mouse cardiomyocytes; no veratridine, data not shown): no observable effect
- Effect on peak current of ΔKPQ (human Nav1.5 ΔKPQ; data not shown): did not inhibit
- Steady-state late-INa after drug (human Nav1.5 ΔKPQ; ≈2% before drug): ≈ 1 % of peak current amplitude
- Reperfusion functional recovery (LVDP) (isolated mouse hearts; [5]): improved
- Effect on late-INa [3]: did not significantly alter
- Effect on peak current [3]: did not significantly alter
- Effect on total sodium current [3]: did not significantly alter
- Activation of TXNIP after ischemia-reperfusion (NLRP3 inflammasome; [5]): complete prevention
- Activation of the NLRP3 inflammasome after ischemia-reperfusion (NLRP3 inflammasome; [5]): complete prevention
- Effect on late component of R1623Q current (human Nav1.5 R1623Q): significantly reduced
- Effect on peak component of R1623Q current (human Nav1.5 R1623Q): significantly reduced
- Activation V50 after drug (human Nav1.5 R1623Q; R1623Q currents): –43.3 mV
- Inactivation V50 after drug (human Nav1.5 R1623Q; R1623Q currents): –97.5 mV
- Frequency dependence of peak- and late-INa inhibition (human Nav1.5 (WT) [2]; 1 µmol/L, stimulation frequencies 0.2–3 Hz): no significant differences
- Effect on H2O2-induced late-INa in WT channels (human Nav1.5 (WT) [2]; 10 µmol/L): significantly inhibited
- Effect on H2O2-induced late-INa (human Nav1.5 (WT) [2]; 1 and 10 µmol/L): significantly inhibited
- Half-activation voltage (V50) after drug (human Nav1.5 (WT) [2]; WT currents, 10 µmol/L): –42.4 mV
- Effect on peak-INa (human Nav1.5 (WT) [2]): little effect
- Inhibition of reverse-mode NCX1.1 (human NCX1.1): no significant inhibition
- Effect on late-INa [4]: significantly reduced
- Effect on peak current [4]: did not affect
- Effect on total current (area under the curve) [4]: significantly reduced

Compound: CCN(CC)CC(=O)Nc1c(C)cccc1C [lidocaine]
- Effect on incidence of veratridine-induced spontaneous transients (mouse cardiomyocytes): significantly reduced

Compound: COc1ccccc1OCC(O)CN1CCN(CC(=O)Nc2c(C)cccc2C)CC1 (centres unmarked) [ranolazine]
- Effect on incidence of veratridine-induced spontaneous transients (mouse cardiomyocytes; 10 µmol/L, 20 nmol/L veratridine): significantly reduced

Compound: NC1=N[C@H](O)[C@H]2[C@H]3O[C@]4(O)O[C@@H]([C@@H](O)[C@@]2(N1)[C@@H]4O)[C@]3(O)CO [tetrodotoxin]
- Reperfusion functional recovery (LVDP) (isolated mouse hearts): improved
- Activation of TXNIP after ischemia-reperfusion (NLRP3 inflammasome): complete prevention
- Activation of the NLRP3 inflammasome after ischemia-reperfusion (NLRP3 inflammasome): complete prevention
- Sensitivity of H2O2-induced persistent inward current (late-INa) (human Nav1.5 (WT) [2]): sensitive

Compound: COc1ccc(C(=O)O[C@H]2CC[C@@]3(C)[C@@H]4CC[C@H]5[C@]6(O)C[C@H](O)[C@@]7(O)[C@@H](CN8C[C@@H](C)CC[C@H]8[C@@]7(C)O)[C@]6(O)C[C@@]53O[C@]24O)cc1OC [veratridine]
- Induction of late-INa activity and spontaneous calcium transients (mouse cardiomyocytes; 20 nmol/L, pilot experiments): induces late-INa activity

Compound: canagliflozin
- Effect on peak-INa (human Nav1.5 (WT) [2]): little inhibitory effect
- IC50 (human Nav1.5 (WT) [2]; read-out: IC50 for inhibition of H2O2-induced late-INa, recombinant human Nav1.5 in HEK293T cells, late-INa induced by 30 µmol/L H2O2): 1.26 µM
